We go through one compound from US20110237497A1, “COMPOSITIONS OF A V-ATPASE INHIBITOR IN COMBINATION WITH A GLUCOCORTICOID RECEPTOR LIGAND AND METHODS OF USE” (priority 2009, published 2011).

The subject of this assay is GR. Kind of assay: GR transactivation, MMTV (pHHLuc) luciferase reporter in AD293 cells. The assay is classed as cell-based. As to conditions: Dexamethasone 1 nM, 10 nM, 100 nM and 1 μM with or without Concanamycin A 1 nM, FIG. 2. How it is done:
AD293 cells in 24 wells plate were transfected with 0.1 ng GR, 100 ng pHHLuc reporter together with 10 ng Renilla control plasmids in each well, then induced by EtOH (vehicle control), Dexamethasone (1 nM, 10 nM, 100 nM and 1 μM), with or without Bafilomycin A1 (100 nM). Dual-Luciferase values were measured by Promega standard manual.
AD293 cells in 24 wells plate were transfected with 0.1 ng GR, 100 ng pHHLuc reporter together with 10 ng Renilla control plasmids in each well, then induced by EtOH (vehicle control), Dexamethasone (1 nM, 10 nM, 100 nM and 1 μM), with or without Concanamycin A (1 nM). Dual-Luciferase values were measured by Promega standard manual.
FIG. 8 is a graph showing a summary of V-ATPase inhibitors in enhancing GR-Dex activity on MMTV (pHHLuc) reporter in AD293 cells. AD293 cells in 24 wells plate were transfected with 0.1 ng GR, 100 ng pHHLuc reporter together with 10 ng Renilla control plasmids in each well, then induce by EtOH (vehicle control), Dexamethasone (10 nM), with different V-ATPase inhibitors (Bafilomycin A1 100 nM; Concanamycin A 1 nM; Lobatamide A 100 nM) or vehicle control. Dual-Luciferase values were measured by Promega standard manual.
For orientation: In a reporter assay the amount or activity of a reporter protein is the signal.

`C/C=C/C1OC(O)(C(C)C(O)C(C)C2OC(=O)/C(OC)=C/C(C)=C/C(C)C(O)C(CC)C(O)C(C)C/C(C)=C/C=C/C2OC)CC(OC2CC(O)C(OC(N)=O)C(C)O2)C1C` (stereo not shown) [Concanamycin A, 6-(2-(4-((4E,6E,14E,16Z)-11-ethyl-10,12-dihydroxy-3,17-dimethoxy-7,9,13,15-tetramethyl-18-oxooxacyclooctadeca-4,6,14,16-tetraen-2-yl)-3-hydroxypentan-2-yl)-2-hydroxy-5-methyl-6-((E)-prop-1-enyl)tetrahydro-2H-pyran-4-yloxy)-4-hydroxy-2-methyltetrahydro-2H-pyran-3-yl carbamate]: the “GR-dex dose-response of induction on MMTV (pHHLuc) reporter (GR transactivation)” value was “synergizes with Dex”.
